{
  "source": "patent US10864150B2",
  "about": "“Hair treatment process” (KAO CORPORATION, priority 2013, dated 2020)",
  "assay": "Test Example 1: impact of tension on hair straightening",
  "details": "then shampooed",
  "experimental": "Three samples A-C of frizzy hair (bundles of 2 g Indian frizz hair, untreated, obtained from IHIP, International Hair Importers & Products, NY; see FIG. 1A) were shampooed, rinsed off with water and dried at ambient temperature. Then, an aqueous solution of 10 wt. % glyoxylic acid (pH 1.5, adjusted with NaOH) was applied to the samples A-C at a ratio of hair to solution of 1:1, uniformly distributed with a comb and left on the hair for 15 minutes at 40° C. Then, the samples were dried with a hair drier at a temperature of 90-100° C. for 10 minutes. The temperature was measured by holding an infrared thermometer at a distance of about 20 to 40 cm from the hair and scanning the area where the air stream comes into contact with the hair. The average of at least ten readings is then taken as the temperature. Samples A and B (Reference) were dried in the absence of mechanical tension and serve as reference samples. To sample C, mechanical tension was applied by fixing one end and holding the sample in an elongated state using a round brush. Reference sample B was subsequently treated with a straightening iron at a temperature of 230° C. The samples A-C were rinsed off with water, shampooed, combed and dried at ambient temperature.",
  "data": [
    {"molecule": "O=CC(=O)O", "note": "[glyoxylic acid]", "values": [
      {"measurement": "straightening of hair after treatment", "setting": "sample A (reference): 10 wt. % aqueous solution pH 1.5, dried with hair drier 90-100° C. in relaxed state, no mechanical tension", "result": "does not lead to a substantial straightening"},
      {"measurement": "straightening of hair after treatment", "setting": "sample B (reference): 10 wt. % aqueous solution pH 1.5, dried without tension, then straightening iron at 230° C.", "result": "straightening of the hair"},
      {"measurement": "appearance of hair after treatment (straightening, frizz)", "setting": "sample C: 10 wt. % aqueous solution pH 1.5, 15 min at 40° C., dried with hair drier 90-100° C. for 10 min under mechanical tension (round brush), no iron, versus sample A", "result": "remarkable straightened appearance and reduced frizz"}
    ]}
  ]
}
